# Data from patent US5238838A (Degussa Aktiengesellschaft, priority 1991, dated 1993).
# “And” between values parts separate entries of the source, which are not always exact repeats. Equal entries are not always repeated. “Also recorded” adds a separate entry of the source. Structures can show the parent of a compound that is named as a salt. Where two headings read alike, the source gives them in different places. Where a SMILES comes first, the peptide text is derived from it.
# Legend:
# L-carnitine amidase [1] = experiment: Substrate spectrum of L-carnitine amidase; assay type: biochemical, strain DSM 6230; details: substrate 50 mM; 30° C.; 100 mM potassium phosphate buffer pH 8
# Experimental: The enzyme test was carried out at 30° C. in 100 mM potassium phosphate buffer pH 8. The substrate concentration was 50 mM.
# L-carnitine amidase [2] = experiment: Test for the induction of L-carnitine amidase; assay type: cell-based, strain DSM 6230; details: for Induction of L-carnitine amidase (in words): strain DSM 6230; for Activity (mU/mg) / Activity (mU/ml): 5 g/l of the substance as inductor, 36 h, L-carnitine amide as substrate
# Experimental: (§1) In this test, various substances were examined for their induction action. At the same time, the growth on these compounds was followed. The medium used was a minimum medium with 1.0 g/l instead of 0.5 g/l yeast extract, to which 5 g/l of the substance to be tested were added in each instance. The culture without inductor contained 5 g/l yeast extract. All tests were carried out with 20 ml shaking cultures which were incubated 36 h at 30° C. and 120 rpms in a rotating [round]shaking machine. These cultures were inoculated with 1% of an initial culture of strain DSM 6230. L-carnitine amide was used as substrate for the enzyme test.
# (§2) At the same time, the growth of the bacteria was followed in these carnitine amide concentrations. The culture conditions corresponded to those in example 3.
# L-carnitine amidase [3] = system: L-carnitine amidase;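 also: additives put into the enzyme mixture before substrate, reaction then initiated by substrate addition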
# Experimental: In order to test the influence of various additives on the enzyme activity, they were added to the test batches without substrate in a final concentration of 1 mM and 10 mM in each instance. The reaction batches were first incubated for 45 min. at 30° C. before the reaction was started by adding substrate solution.
# strain DSM 6230 = experiment: Growth of strain DSM 6230 on the test substances (OD660); assay type: cell-based; details: for OD660: 5 g/l of the substance in minimum medium with 1.0 g/l yeast extract, 36 h, 30° C.
# Experimental: 1367 strains were isolated during the screening program. These strains were incubated in 100 ml Erlenmeyer flasks containing 20 ml of the particular enrichment medium in a rotary agitator at 30° C. and 120 rpms. The optical density at 660 nm was taken as an indication for the cell growth.
# as §1, §2
# [4] = additive 1 mM, 45 min. preincubation at 30° C.
# [5] = additive 10 mM, 45 min. preincubation at 30° C.
SMILES,Rel. activity (%) (L-carnitine amidase [1]),Enzyme activity (%) (L-carnitine amidase [3]; [4]),Enzyme activity (%) (L-carnitine amidase [3]; [5]),also measured
N=C(N)NCCC[C@H](N)C(N)=O [L-Arg-NH2],0%,–,–,–
NC(=O)C[C@H](N)C(N)=O [L-Asn-NH2],0%,–,–,–
NC(=O)[C@H](Cc1ccccc1)NC(=O)[C@@H](N)CC(=O)O [L-Asp-L-Phe-NH2] (H-Asp-Phe-NH2),0%,–,–,–
NC(=O)[C@@H](N)Cc1c[nH]cn1 [L-His-NH2],0%,–,–,–
CC[C@H](C)[C@H](N)C(N)=O [L-Ile-NH2],0%,–,–,–
CSCC[C@H](N)C(N)=O [L-Met-NH2],0%,–,–,–
NC(=O)[C@@H](N)CO [L-Ser-NH2],0%,–,–,–
NC(=O)[C@@H](N)Cc1c[nH]c2ccccc12 [L-Trp-NH2],0%,–,–,–
NC(=O)CNC(=O)[C@@H](N)Cc1ccc(O)cc1 [L-Tyr-Gly-NH2],0%,–,–,–
NC(=O)[C@@H](N)Cc1ccc(O)cc1 [L-Tyr-NH2],0%,–,–,–
CC(C)[C@H](N)C(=O)N[C@@H](Cc1ccccc1)C(N)=O [L-Val-L-Phe-NH2] (H-Val-Phe-NH2),0%,–,–,–
"C[N+](C)(C)C[C@H](O)CC(=O)[O-] [L-carnitine, 3-hydroxy-4-trimethylaminobutyrate]",–,–,–,Induction of L-carnitine amidase (in words) (L-carnitine amidase [2]): induced; also recorded: Inductors
CC(C)CC(N)C(N)=O (stereo not shown) [Leu-NH2],0%,–,–,–
[Cl-].[Cl-].[Mg+2] [MgCl2],–,96%,88%,–
[Cl][Mn][Cl] [MnCl2],–,89%,76%,Reduction of the enzyme activity (in words) (L-carnitine amidase [3]; concentration of 10 mM): reduction of the enzyme activity
Cc1ccc(S(=O)(=O)N[C@@H](CCCCN)C(=O)CCl)cc1 [Na-tosyl-L-lysyl-chloromethane hydrochloride],–,84%,73%,Reduction of the enzyme activity (in words) (L-carnitine amidase [3]; concentration of 10 mM): reduction of the enzyme activity
[F-].[Na+] [NaF],–,88%,78%,Reduction of the enzyme activity (in words) (L-carnitine amidase [3]; concentration of 10 mM): reduction of the enzyme activity
[N-]=[N+]=[N-].[Na+] [NaN3],–,85%,82%,–
CN(C)C(=O)Oc1cccc([N+](C)(C)C)c1 [Neostigmine bromide],–,100%,94%,–
[Cl][Ni][Cl] [NiCl2],–,80%,79%,–
NC(=O)c1cccnc1 [Nicotinamide],–,–,–,Activity (mU/mg) (L-carnitine amidase [2]): 28 mU/mg; Activity (mU/ml) (L-carnitine amidase [2]): 55 mU/ml; OD660 (strain DSM 6230): 0.7
Cl.N=C(N)c1ccc(N)cc1 [Para-amino benzamidine hydrochloride],–,88%,99%,–
O=C(O)c1cc[c]([Hg][OH])cc1 [Para-hydroxymercuribenzoate],–,51%,–,–
c1cnc2c(c1)ccc1cccnc12 [Phenanthroline],–,89%,82%,–
"O=S(=O)(F)Cc1ccccc1 [Phenylmethane sulfonylfluoride (PMSF), Phenylmethane sulfonylfluoride]",–,23%,2%,–
N[C@@H](CCC(=O)N[C@@H](CS)C(=O)NCC(=O)O)C(=O)O [Red. glutathione],–,–,–,Enzyme activity (%) (L-carnitine amidase [3]): 97% and 92%; Reduction of the enzyme activity (in words) (L-carnitine amidase [3]): reduction of the enzyme activity
O=C(O)CN(CCN(CC(=O)O)CC(=O)O)CC(=O)O [Titriplex III (EDTA)],–,–,–,Enzyme activity (%) (L-carnitine amidase [3]): 93% and 73%; Reduction of the enzyme activity (in words) (L-carnitine amidase [3]): reduction of the enzyme activity
[Cl-].[Cl-].[Zn+2] [ZnCl2],–,6%,–,–
"C[N+](C)(C)CCCC(=O)[O-] [butyrobetaine, γ-butyrobetaine]",–,–,–,Activity (mU/mg) (L-carnitine amidase [2]): 566 mU/mg; Activity (mU/ml) (L-carnitine amidase [2]): 963 mU/ml; Induction of L-carnitine amidase (in words) (L-carnitine amidase [2]): induced; also recorded: Inductors; also recorded: induce the enzyme; OD660 (strain DSM 6230): 0.7; Growth of the strain on the substance (in words) (strain DSM 6230; strain DSM 6230): can not be metabolized or are metabolized very poorly
CC(C)CC(=O)C(=O)O [α-ketoisocaproic acid],–,92%,90%,–
